# Data from PubChem BioAssay AID1259411 (Chemical Carcinogenesis Research Information System (CCRIS), 2018).
# Calls of active or inactive are those of the source. No rule for the calls is given here.
# System: rodent carcinogenicity bioassays, tumor incidence
# Experiment: CCRIS carcinogenicity studies
# Procedure, shortened: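 NCI-built, expert-reviewed records of carcinogenicity and related test outcomes (mutagenicity, tumor promotion/inhibition) compiled from published and report sources, historical span 1985-2011, not updated.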
smiles,measurement,setting,value
CC(C)(c1ccc(O)cc1)c1ccc(O)cc1 (tested in a mixture with another compound),carcinogen call,"Species: MOUSE, Strain/Sex: CF-1/FEMALE, Route: DERMAL, Dose: 0, 1, 10% EPIKOTE 828 IN ACETONE (TOTAL DOSE 0.2 ML) 2/WK APPLIED TO DORSAL SKIN FOR DURATION OF STUDY (STUDY DURATION:, Dose: 0, 1, 10% EPIKOTE 828 IN ACETONE (TOTAL DOSE 0.2 ML) 2/WK APPLIED TO DORSAL SKIN FOR DURATION OF STUDY (STUDY DURATION:, Tumor Site: Type of Lesion: HEMATOPOIETIC SYSTEM: RETICULUM-CELL SARCOMA, LYMPHOBLASTIC LYMPHOSARCOMA",active; positive
same,carcinogen call,"Species: MOUSE, Strain/Sex: CF-1/FEMALE, Route: DERMAL, Dose: 0, 1, 10% EPON 828 IN ACETONE (TOTAL DOSE 0.2 ML) 2/WK APPLIED TO DORSAL SKIN FOR DURATION OF STUDY (STUDY DURATION: 2 Y, Dose: 0, 1, 10% EPON 828 IN ACETONE (TOTAL DOSE 0.2 ML) 2/WK APPLIED TO DORSAL SKIN FOR DURATION OF STUDY (STUDY DURATION: 2 Y",inactive; negative
same,carcinogen call,"Species: MOUSE, Strain/Sex: CF-1/MALE, Route: DERMAL, Dose: 0, 1, 10% EPIKOTE 828 IN ACETONE (TOTAL DOSE 0.2 ML) 2/WK APPLIED TO DORSAL SKIN FOR DURATION OF STUDY (STUDY DURATION:, Dose: 0, 1, 10% EPIKOTE 828 IN ACETONE (TOTAL DOSE 0.2 ML) 2/WK APPLIED TO DORSAL SKIN FOR DURATION OF STUDY (STUDY DURATION:",inactive; negative
same,carcinogen call,"Species: MOUSE, Strain/Sex: CF-1/MALE, Route: DERMAL, Dose: 0, 1, 10% EPON 828 IN ACETONE (TOTAL DOSE 0.2 ML) 2/WK APPLIED TO DORSAL SKIN FOR DURATION OF STUDY (STUDY DURATION: 2 Y, Dose: 0, 1, 10% EPON 828 IN ACETONE (TOTAL DOSE 0.2 ML) 2/WK APPLIED TO DORSAL SKIN FOR DURATION OF STUDY (STUDY DURATION: 2 Y",inactive; negative
Clc1ccc2c(c1)Oc1ccc(Cl)cc1O2,carcinogen call,"Species: MOUSE, Strain/Sex: B6C3F1/FEMALE, Route: ORAL, Dose: 0, 5,000, 10,000 PPM IN DIET FOR 90 WK (STUDY DURATION: 91-98 WK), Dose: 0, 5,000, 10,000 PPM IN DIET FOR 90 WK (STUDY DURATION: 91-98 WK)",inactive; negative
same,carcinogen call,"Species: MOUSE, Strain/Sex: B6C3F1/MALE, Route: ORAL, Dose: 0, 5000, 10000 PPM IN DIET FOR 90 WK (STUDY DURATION: 92-101 WK), Dose: 0, 5000, 10000 PPM IN DIET FOR 90 WK (STUDY DURATION: 92-101 WK), Tumor Site: Type of Lesion: LIVER: HEPTOCELLULAR ADENOMA OR CARCINOMA, HEMATOPOIETIC SYSTEM: LYMPHOMA OR LEUKEMIA, SPLEEN: HEMANGIOMA OR HEMANGIOSAR, Tumor Site: Type of Lesion: LIVER: HEPTOCELLULAR ADENOMA OR CARCINOMA, HEMATOPOIETIC SYSTEM: LYMPHOMA OR LEUKEMIA, SPLEEN: HEMANGIOMA OR HEMANGIOSAR",equivocal
same,carcinogen call,"Species: RAT, Strain/Sex: OSBORNE-MENDEL/FEMALE, Route: ORAL, Dose: 0, 5,000, 10,000 PPM IN DIET FOR 110 WK (STUDY DURATION: 110-117 WK), Dose: 0, 5,000, 10,000 PPM IN DIET FOR 110 WK (STUDY DURATION: 110-117 WK)",inactive; negative
same,carcinogen call,"Species: RAT, Strain/Sex: OSBORNE-MENDEL/MALE, Route: ORAL, Dose: 0, 5,000, 10,000 PPM IN DIET FOR 110 WK (STUDY DURATION: 110-112 WK), Dose: 0, 5,000, 10,000 PPM IN DIET FOR 110 WK (STUDY DURATION: 110-112 WK)",inactive; negative
C=C1C[C@@]23CC[C@H]4[C@@](C)(CCC[C@@]4(C)C(=O)O[C@@H]4O[C@H](CO)[C@@H](O)[C@H](O)[C@H]4O)[C@@H]2CC[C@]1(O[C@@H]1O[C@H](CO)[C@@H](O)[C@H](O)[C@H]1O[C@@H]1O[C@H](CO)[C@@H](O)[C@H](O)[C@H]1O)C3,carcinogen call,"Species: RAT, Strain/Sex: F344/FEMALE, Route: ORAL, Dose: 0, 2.5, 5% IN DIET FOR 104 WK (STUDY DURATION: 108 WK), Dose: 0, 2.5, 5% IN DIET FOR 104 WK (STUDY DURATION: 108 WK)",inactive; negative
same,carcinogen call,"Species: RAT, Strain/Sex: F344/MALE, Route: ORAL, Dose: 0, 2.5, 5% IN DIET FOR 104 WK (STUDY DURATION: 108 WK), Dose: 0, 2.5, 5% IN DIET FOR 104 WK (STUDY DURATION: 108 WK)",inactive; negative
same,carcinogen call,"Species: RAT, Strain/Sex: WISTAR/FEMALE, Route: ORAL, Dose: 0, 0.2, 0.6%, 1.2% IN DIET FOR 24 MO (STUDY DURATION: 24 MO), Dose: 0, 0.2, 0.6%, 1.2% IN DIET FOR 24 MO (STUDY DURATION: 24 MO)",inactive; negative
same,carcinogen call,"Species: RAT, Strain/Sex: WISTAR/MALE, Route: ORAL, Dose: 0, 0.2, 0.6, 1.2% IN DIET FOR 24 MO (STUDY DURATION: 24 MO), Dose: 0, 0.2, 0.6, 1.2% IN DIET FOR 24 MO (STUDY DURATION: 24 MO)",inactive; negative
Oc1ccc2ccccc2c1N=Nc1ccccc1,carcinogen call,"Species: MOUSE, Route: SUBCUTANEOUS, Tumor Site: Type of Lesion: LIVER",active; positive
same,carcinogen call,"Species: MOUSE, Strain/Sex: B6C3F1/MALE, Route: ORAL, Dose: 0, 500, 1000 PPM IN DIET, Dose: 0, 500, 1000 PPM IN DIET",inactive; negative
same,carcinogen call,"Species: RAT, Strain/Sex: F344/FEMALE, Route: ORAL, Dose: 0, 250, 500 PPM IN DIET, Dose: 0, 250, 500 PPM IN DIET, Tumor Site: Type of Lesion: LIVER: NEOPLASTIC NODULE",active; positive
same,carcinogen call,"Species: RAT, Strain/Sex: F344/MALE, Route: ORAL, Dose: O, 250, 500 PPM IN DIET, Dose: O, 250, 500 PPM IN DIET, Tumor Site: Type of Lesion: LIVER: NEOPLASTIC NODULE",active; positive
CCN(Cc1cccc(S(=O)(=O)O)c1)c1ccc(C(=C2C=CC(=[N+](CC)Cc3cccc(S(=O)(=O)O)c3)C=C2)c2ccc(O)cc2S(=O)(=O)[O-])cc1,carcinogen call,"Species: MOUSE, Strain/Sex: SWISS-WEBSTER/FEMALE, Route: DERMAL, Dose: 0, 1% IN 0.1 ML DISTILLED WATER 1/WK FOR 19.5 MO (STUDY DURATION: 19.5 MO)",inactive; negative
same,carcinogen call,"Species: MOUSE, Strain/Sex: SWISS-WEBSTER/MALE, Route: DERMAL, Dose: 0, 1% IN 0.1 ML DISTILLED WATER 1/WK FOR 19.5 MO (STUDY DURATION: 19.5 MO)",inactive; negative
same,carcinogen call,"Species: RAT, Strain/Sex: FISCHER/FEMALE, Route: SUBCUTANEOUS, Dose: 0, 0.5 ML OF 3% SOLUTION IN DISTILLED WATER (0; 15 MG) 2/WK FOR 26 WK THEN 1/WK FOR 22 WK (STUDY DURATION: 11 MO), Dose: 0, 0.5 ML OF 3% SOLUTION IN DISTILLED WATER (0; 15 MG) 2/WK FOR 26 WK THEN 1/WK FOR 22 WK (STUDY DURATION: 11 MO), Tumor Site: Type of Lesion: INJECTION SITE: FIBROSARCOMA",active; positive
same,carcinogen call,"Species: RAT, Strain/Sex: FISCHER/FEMALE, Route: SUBCUTANEOUS, Dose: 0, 0.5 ML OF 6% SOLUTION IN DISTILLED WATER (0; 30 MG) 2/WK FOR 19 WK THEN 3% SOLUTION (0; 15 MG) 2/WK FOR 9 WK FOLLOWED, Dose: 0, 0.5 ML OF 6% SOLUTION IN DISTILLED WATER (0; 30 MG) 2/WK FOR 19 WK THEN 3% SOLUTION (0; 15 MG) 2/WK FOR 9 WK FOLLOWED, Tumor Site: Type of Lesion: INJECTION SITE: FIBROSARCOMA",active; positive
